In patent US20060229293A1, “Compositions for the treatment of hepatitis C and methods for using compositions for the treatment of hepatitis C” (Addiction Research Institute, Inc., priority 2005, published 2006):

Legend:
Format in all cases: in vivo, human
[1] = test system: HCV RNA genotype 3; assay: Case report, Example 4: HCV RNA after ibogaine HCl over 48 hours; settings: total of 27 mg/kg over 48 hours
Protocol: A person weighing 160 lbs tested positive HCV RNA genotype 3. RNA IU/mL was 12,600,000. Subject was administered a total of 27 mg/kg of ibogaine HCl over a period of 48 hours in the following regimen: 2 mg/kg, 2 mg/kg, 2 mg/kg, 2 mg/kg, 2 mg/kg, 2 mg/kg, 12 mg/kg, and 3 mg/kg. HCV RNA IU/mL was reduced to 50,100. Prior to ibogaine therapy patient's urine was dark and stool light. Post treatment color of urine and stool were normal.

[2] = test system: HCV RNA genotype 1; assay: Case report, Example 3: HCV RNA and liver enzymes after an escalating dose regimen of ibogaine HCl
Protocol: A person testing positive for HCV RNA genotype 1, administered the following dose regimen of ibogaine HCl. Subject weighed 79 kg. Doses administered were as total doses and not mg/kg. Day 1: 10 mg ibogaine HCl. Day 2: 20 mg ibogaine HCl. Day 3: 20 mg ibogaine HCl. Day 4: 30 mg ibogaine HCl. Day 5: 50 mg ibogaine HCl. Day 6: 75 mg ibogaine HCl. Day 8: 100 mg ibogaine HCl. Day 10: 150 mg ibogaine HCl. Day 14: 300 mg ibogaine HCl. HCV RNA IU/mL was reduced from 780,000 to 644,000. Pretreatment Alkaline Phosphatase was 99, AST was 103 and ALT 195. Post treatment Alkaline Phosphatase 88, AST 89 and ALT 127. An additional 250 mg of ibogaine HCl further reduced HCV RNA IU/mL to 384,000. A final dose within this regimen of 250 mg ibogaine was administered reducing the HCV RNA IU/mL to 154,000.

[3] = test system: HCV; assay: Case report, Example 2: liver enzyme levels in HCV positive after ibogaine HCl; settings: person, 14 mg/kg self-administered
Protocol: A person testing positive for HCV and dependent on heroin and methadone self-administered 14 mg/kg of ibogaine HCl. AST was reduced from pretreatment level of 201 to post treatment level of 25. ALT was reduced from pretreatment level of 410 to post treatment level of 50. GGT level was reduced from 155 to 33.

[4] = test system: HCV; assay: Case report, Example 1: HCV positive heroin user given ibogaine HCl; settings: person, 25 mg/kg
Protocol: A person diagnosed as HCV positive and using ½ gram of heroin per day was administered 25 mg/kg of ibogaine HCl. Following the administration of ibogaine, heroin use ceased along with swelling of the liver and pain in the area of the liver.

ibogaine HCl
HCV RNA after treatment ([1]; person, 160 lbs, genotype 3, before treatment 12,600,000): 50,100 IU/mL | color of urine and stool post treatment ([1]; prior to therapy urine dark and stool light): normal | HCV RNA after an additional dose ([2]; additional 250 mg after the Day 1-14 regimen, previous level 644,000): 384,000 IU/mL | HCV RNA after the final dose ([2]; final dose of 250 mg within the regimen, previous level 384,000): 154,000 IU/mL | HCV RNA after regimen ([2]; person, 79 kg, genotype 1, total doses 10-300 mg on Days 1-14, reduced from 780,000): 644,000 IU/mL | Alkaline Phosphatase post treatment ([2]; person, genotype 1, Day 1-14 regimen, pretreatment 99): 88 | AST post treatment ([2]; person, genotype 1, Day 1-14 regimen, pretreatment 103): 89 | ALT post treatment ([2]; person, genotype 1, Day 1-14 regimen, pretreatment 195): 127 | AST post treatment level ([3]; pretreatment level 201): 25 | ALT post treatment level ([3]; pretreatment level 410): 50 | GGT level post treatment ([3]; reduced from 155): 33 | pain in the area of the liver following administration [4]: ceased | swelling of the liver following administration [4]: ceased | heroin use following administration ([4]; using ½ gram of heroin per day): ceased
